According to the supplement of paper PMC10307832:

compound: C1=CC2=NC=CN=C2C=C1/C=C/3\C(=O)NC(=O)S3; experiment: relative viability (nuclei count vs DMSO), 5 days (fraction); higher = more cells survive; conditions: 0.2 µM
How it was run: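 Viability is treated-well nuclei as a fraction of vehicle-well nuclei, reported as the median across plates. Before counting, lung cancer cell lines were kept overnight at 37 °C in 1536-well plates, pinned with five √10-spaced library-drug doses on vehicle-anchored plates, and left 5 days without medium change, then fixed, permeabilised and Hoechst-stained in one step, imaged at 4× and counted by MetaXpress. A plate passed only if control CV was below 25% and at least one doubling occurred.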

Cell Line	relative viability
HCC-44	0.991
A549	1.05
LU99A	0.979
BEN	1.03
HARA	0.945
HCC-78	1.04
NCI-H322M	0.995
LCLC-97TM1	1.03
NCI-H2009	1.04
A-427	1.08
NCI-H661	1.02
NCI-H1734	1.07
NCI-H460	0.999
NCI-H2347	1
SK-LU-1	1.09
NCI-H1395	1.06

same assay, conditions: 0.6325 µM

Cell Line	relative viability
NCI-H2085	0.983
Calu-6	0.989
HCC-366	0.942
NCI-H1666	0.971
NCI-H596	0.834
LK-2	0.896
NCI-H2087	0.951
SK-MES-1	0.984
H3255	0.934
COR-L23	0.938
COR-L 105	0.912
IA-LM	0.997
LOU-NH91	0.978
NCI-H2170	0.938
NCI-H2405	1.01
HOP-62	1

Cell Line	relative viability
HCC-44	0.965
A549	0.902
LU99A	0.871
BEN	0.961
HARA	0.778
HCC-78	0.979
NCI-H322M	0.916
LCLC-97TM1	0.906
NCI-H2009	1.02
A-427	0.918
NCI-H661	0.972
NCI-H1734	0.916
NCI-H460	0.939
NCI-H2347	1
SK-LU-1	1.02
NCI-H1395	0.884

same assay, conditions: 2 µM

Cell Line	relative viability
NCI-H2085	0.892
Calu-6	1
HCC-366	0.985
NCI-H1666	0.893
NCI-H596	0.867
LK-2	0.566
NCI-H2087	0.926
SK-MES-1	0.875
H3255	0.946
COR-L23	0.976
COR-L 105	0.741
IA-LM	0.99
LOU-NH91	0.805
NCI-H2170	0.998
NCI-H2405	0.394
HOP-62	0.943

Cell Line	relative viability
HCC-44	0.745
A549	0.697
LU99A	0.518
BEN	0.839
HARA	0.955
HCC-78	0.507
NCI-H322M	0.739
LCLC-97TM1	0.214
NCI-H2009	0.923
A-427	0.975
NCI-H661	1.07
NCI-H1734	0.635
NCI-H460	0.942
NCI-H2347	0.918
SK-LU-1	0.969
NCI-H1395	0.899
